In patent US11702417B2, “Compounds for improving mRNA splicing” (The General Hospital Corporation, priority 2015, dated 2023):
Where two headings read alike, the source gives them in different places.

Experiments:
[1] = tested on: IKBKAP splicing (exon 20 inclusion) in FD fibroblasts GM04663; assay: Secondary assay: IKBKAP splicing analysis by RT-PCR in FD fibroblasts GM04663; format: cell-based; conditions: Homo sapiens, FD fibroblasts GM04663, 24 hours of treatment, read-out: % exon Inclusion Normalized
[2] = tested on: FD (familial dysautomonia) IKBKAP minigene, exon 20 inclusion, in HEK293T cells; assay: Primary splicing assay (FD IKBKAP minigene, Firefly/Renilla luciferase reporter in HEK293T); format: cell-based, human; conditions: for EC (maximum kinetin efficacy) / Emax: Homo sapiens, HEK-293T; for EC (maximum kinetin efficacy): HEK293T, read-out: ECk (compound concentration at which the maximum kinetin efficacy (200 μM) is reached)
[3] = Firefly/Renilla ratio, 24 hours of treatment
[4] = max efficacy in Primary Assay, Firefly/Renilla ratio, kinetin and DMSO as positive and negative controls, 24 hours of treatment, read-out: Emax (%)

Row | Structure (SMILES) | EC (maximum kinetin efficacy) [2, 3] [µM] | Emax [2, 4] [%] | also measured
1 | CCCOc1nc2c(NCc3nccs3)nc(Cl)nc2[nH]1 [(271)] | 0.29 | 206 | activation at 0.08 µM [1]: 62.2%; activation at 0.8 µM [1]: 107%
2 | Clc1nc(NCc2nccs2)c2nc(OCC3CCO3)[nH]c2n1 (stereo not shown) [(346)] | 1.42 | 181 | activation at 0.08 µM [1]: 23.2%; activation at 0.8 µM [1]: 58.6%
3 | Clc1nc(NCc2cscn2)c2cc[nH]c2n1 [(372)] | 3.71 | 126 | activation at 0.08 µM [1]: 13.4%; activation at 0.8 µM [1]: 48.7%
4 | CCOc1nc2c(NCc3ccncn3)nc(Cl)nc2[nH]1 [(320)] | 0.52 | 208 | activation at 0.08 µM [1]: 47.1%; activation at 0.8 µM [1]: 103%
5 | FC(F)COc1nc2c(NCc3nccs3)nc(Cl)nc2[nH]1 [(347)] | 0.77 | 186 | activation at 0.08 µM [1]: 18.3%; activation at 0.8 µM [1]: 72%
6 | COCCOc1nc2c(NCc3ccncn3)nc(Cl)nc2[nH]1 [(319)] | 1.56 | 204 | activation at 0.08 µM [1]: 14.2%; activation at 0.8 µM [1]: 77.8%
7 | CSc1nc(NCc2nccs2)n2ncnc2n1 [(342)] |  | 16 | 
8 | c1ccc(-c2c[nH]c3ncnc(NCc4ccco4)c23)cc1 [(83)] |  | 4 | 
9 | OCCOc1nc2c(NCc3ccncc3)nc(Cl)nc2[nH]1 [(315)] | 2.52 | 165 | 
10 | Clc1nc(NCc2ccco2)c2c(-c3ccncc3)c[nH]c2n1 [(89)] |  | 21 | 
11 | Clc1nc(NCc2cscn2)c2nc[nH]c2n1 [(381)] |  | 63.4 | 
12 | Clc1nc(NCc2ccncc2)c2nc(OC3COC3)[nH]c2n1 [(272)] | 2.6 | 155 | 
13 | Cc1cccc(CNc2ncnc3[nH]cnc23)c1 [(1)] |  | 19 | 
14 | Cn1cnc2nc(Cl)nc(NCc3nccs3)c21 [(304)] | 4.14 | 166 | 
15 | Clc1nc(NCc2ccco2)c2[nH]cnc2n1 [(458)] |  | 73.1 | 
16 | Cc1cn(CCO)c2nc(Cl)nc(NCc3ccco3)c12 [(105)] |  |  | Emax ([2]; max efficacy, Firefly only, footnote c: Renilla interference/Firefly only, read-out: Emax (%) Firefly only): 134%; ECk, Firefly only ([2]; Renilla interference/Firefly only (footnote c)): 10.36 µM⁻¹
17 | CN(C)c1nc2c(NCc3ccco3)nc(Cl)nc2[nH]1 [(118)] | 10.5 | 112 | 

Row | Structure (SMILES) | EC (maximum kinetin efficacy) [2, 3] [µM] | Emax [2, 4] [%] | also measured
18 | FC(F)(F)CCOc1nc2c(NCc3ccco3)nc(Cl)nc2[nH]1 [(398)] | 0.94 | 176 | 
19 | CN(Cc1nccs1)c1nc(Cl)nc2[nH]ccc12 [(363)] |  | 53.2 | 
20 | Cc1cc2c(NCc3nccs3)nc(Cl)nc2[nH]1 [(147)] |  | 80 | 
21 | O=c1[nH]c2c(NCc3nccs3)nc(Cl)nc2n1C1CCCCO1 (stereo not shown) [(344)] |  | 18.4 | 
22 | OCCOc1nc2c(NCc3ccncn3)nc(Cl)nc2[nH]1 [(309)] | 2.08 | 194 | 
23 | FCCn1ccc2c(NCc3ccco3)nc(Cl)nc21 [(150)] |  |  | Emax ([2]; max efficacy, value marked (RT-PCR), footnote a: Firefly inhibitor, read-out: Emax (%) (RT-PCR)): 320%; ECk (RT-PCR) ([2]; determined by RT-PCR, footnote a Firefly inhibitor, footnote b Renilla interference): 1 to 10 µM
24 | FCCn1ncc2c(NCc3ccco3)nc(Cl)nc21 [(214)] | 11.2 | 197 | 
25 | Clc1nc(NCc2ccnc3ccccc23)c2cc[nH]c2n1 [(186)] |  | 17 | 
26 | Clc1nc(NCc2ncccn2)c2cc[nH]c2n1 [(361)] |  | 9.8 | 
27 | Clc1nc(NCc2ccncn2)c2nc(OC3CCC3)[nH]c2n1 [(321)] | 1.41 | 197 | 
28 | Cc1cnccc1CNc1nc(Cl)nc2[nH]cnc12 [(268)] |  | 19 | 
29 | Clc1nc(NCc2ccco2)c2nc(OCc3ccccc3)[nH]c2n1 [(490)] | 0.62 | 176 | 
30 | CC(Nc1nc(Cl)nc2[nH]cnc12)c1ccncc1 (stereo not shown) [(366)] |  | 19.2 | 
31 | FC1(F)CC(COc2nc3c(NCc4cscn4)nc(Cl)nc3[nH]2)C1 [(488)] | 1.02 | 206 | 
32 | O=C1CCCN1CCOc1nc2c(NCc3ccco3)nc(Cl)nc2[nH]1 [(396)] |  | 38.7 | 
33 | Clc1nc(NCc2nncs2)c2cc[nH]c2n1 [(501)] |  | 18.1 | 
34 | FC(F)(F)c1cccc(Nc2ncnc3[nH]cnc23)c1 [(13)] |  | 16 | 
